Reference: patent publication US10709790B2, “Chemical conjugates of Evans Blue derivatives and their use in the production of long-acting therapeutics” (THE UNITED STATES OF AMERICA, AS REPRESENTED BY THE …, priority 2015, dated 2020)

Tests used:
blood glucose = assay: Plasma glucose levels in Type 2 diabetic cynomolgus monkeys; assay type: in vivo; settings: one-time s.c. injection; Abextide II 165 ug/kg, albiglutide 0.9 mg/kg; compared to placebo
Procedure: (§1) The efficacy and pharmacokinetics of MEB-C3-Cys40-Extendin 4 (Abextide II) was studied in primates. Nine Type 2 diabetic cynomolgus monkeys were separated into 3 groups and each group was injected with one of albiglutide (positive control, 0.9 mg/kg), Abextide II (165 μg/kg), or a saline placebo, as a one-time subcutaneous injection. The structure of Abextide II is shown below.
(§2) Plasma glucose levels and body weight were measured, and an intravenous glucose tolerance test (IVGTT) was also performed to assess the efficacy and pharmacokinetics of the compounds.

plasma glucose = assay: Intravenous glucose tolerance test (IVGTT) in Type 2 diabetic cynomolgus monkeys; assay type: in vivo; settings: plasma glucose at 0, 5, 15 and 30 min; 2 hours after treatment vs one week before
Procedure: as §1, §2
Intravenous glucose tolerance test was performed on all animals one week before (baseline) and 2 hours after treatment. […] The areas under curve (AUCs) of the plasma glucose level at 0, 5, 15 and 30 min were calculated to quantify IVGTT.

Substance: Albiglutide
- reduction of blood glucose level (blood glucose): unable to reduce blood glucose level
- IVGTT area under curve (AUC) of plasma glucose level versus baseline before treatment (plasma glucose): significant differences were not observed
